Measurements published in ChEMBL document CHEMBL1152560, “Substituted 2-arylbenzothiazoles as kinase inhibitors: hit-to-lead optimization” (Bioorg Med Chem, 2009).

Assays:
[1] = target: Casein kinase II subunit alpha (Homo sapiens) (UniProt P68400); test: Residual activity of CK2alpha1 at 1 uM by microplate scintillation counting
[2] = target: G protein-coupled receptor kinase 5 (Homo sapiens) (UniProt P34947); test: Residual activity of GRK5 at 1 uM by microplate scintillation counting
[3] = Residual activity of PKA at 1 uM by microplate scintillation counting
[4] = target: Receptor tyrosine-protein kinase erbB-2 (Homo sapiens, UniProt P04626); test: Residual activity of ERBB2 at 0.1 uM by microplate scintillation counting
Sequence of Receptor tyrosine-protein kinase erbB-2 (P04626 whole entry): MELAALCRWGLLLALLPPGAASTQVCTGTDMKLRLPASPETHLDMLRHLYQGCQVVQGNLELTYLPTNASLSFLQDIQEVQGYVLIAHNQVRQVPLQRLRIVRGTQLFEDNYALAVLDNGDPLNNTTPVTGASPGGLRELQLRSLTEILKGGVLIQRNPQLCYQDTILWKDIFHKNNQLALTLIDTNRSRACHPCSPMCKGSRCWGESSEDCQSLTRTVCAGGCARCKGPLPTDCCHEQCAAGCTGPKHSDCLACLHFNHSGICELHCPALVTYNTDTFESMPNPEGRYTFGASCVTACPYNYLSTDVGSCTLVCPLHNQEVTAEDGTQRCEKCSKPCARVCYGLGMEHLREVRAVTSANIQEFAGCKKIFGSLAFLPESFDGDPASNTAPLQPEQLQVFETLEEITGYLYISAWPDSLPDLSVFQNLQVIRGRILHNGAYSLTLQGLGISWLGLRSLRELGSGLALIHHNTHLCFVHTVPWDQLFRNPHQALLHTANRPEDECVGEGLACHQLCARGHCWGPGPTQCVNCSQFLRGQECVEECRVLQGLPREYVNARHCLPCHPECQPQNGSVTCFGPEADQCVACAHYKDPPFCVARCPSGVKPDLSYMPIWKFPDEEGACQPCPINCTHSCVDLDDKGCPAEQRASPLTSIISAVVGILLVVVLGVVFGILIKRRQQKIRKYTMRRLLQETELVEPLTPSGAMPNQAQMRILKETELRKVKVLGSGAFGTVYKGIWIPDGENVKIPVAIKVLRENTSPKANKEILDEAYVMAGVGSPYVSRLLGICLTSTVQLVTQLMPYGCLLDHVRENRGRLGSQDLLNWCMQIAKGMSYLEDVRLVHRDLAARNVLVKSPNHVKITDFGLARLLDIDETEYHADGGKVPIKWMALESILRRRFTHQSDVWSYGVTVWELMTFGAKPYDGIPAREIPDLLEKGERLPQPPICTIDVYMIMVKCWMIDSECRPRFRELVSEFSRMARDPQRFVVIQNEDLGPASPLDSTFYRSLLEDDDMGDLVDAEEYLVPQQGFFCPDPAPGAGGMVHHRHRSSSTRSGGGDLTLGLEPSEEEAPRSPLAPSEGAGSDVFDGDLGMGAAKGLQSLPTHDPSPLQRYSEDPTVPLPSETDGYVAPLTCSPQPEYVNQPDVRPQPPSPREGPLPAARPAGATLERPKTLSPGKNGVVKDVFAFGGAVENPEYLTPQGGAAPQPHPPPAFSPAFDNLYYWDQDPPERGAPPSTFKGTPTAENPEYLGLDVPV

[5] = target: Hepatocyte growth factor receptor (Homo sapiens) (UniProt P08581); test: Residual activity of MET at 0.1 uM by microplate scintillation counting
[6] = target: Maternal embryonic leucine zipper kinase (Homo sapiens) (UniProt Q14680); test: Residual activity of MELK at 1 uM by microplate scintillation counting
Sequence of Maternal embryonic leucine zipper kinase (Homo sapiens) (Q14680 whole entry, looked up): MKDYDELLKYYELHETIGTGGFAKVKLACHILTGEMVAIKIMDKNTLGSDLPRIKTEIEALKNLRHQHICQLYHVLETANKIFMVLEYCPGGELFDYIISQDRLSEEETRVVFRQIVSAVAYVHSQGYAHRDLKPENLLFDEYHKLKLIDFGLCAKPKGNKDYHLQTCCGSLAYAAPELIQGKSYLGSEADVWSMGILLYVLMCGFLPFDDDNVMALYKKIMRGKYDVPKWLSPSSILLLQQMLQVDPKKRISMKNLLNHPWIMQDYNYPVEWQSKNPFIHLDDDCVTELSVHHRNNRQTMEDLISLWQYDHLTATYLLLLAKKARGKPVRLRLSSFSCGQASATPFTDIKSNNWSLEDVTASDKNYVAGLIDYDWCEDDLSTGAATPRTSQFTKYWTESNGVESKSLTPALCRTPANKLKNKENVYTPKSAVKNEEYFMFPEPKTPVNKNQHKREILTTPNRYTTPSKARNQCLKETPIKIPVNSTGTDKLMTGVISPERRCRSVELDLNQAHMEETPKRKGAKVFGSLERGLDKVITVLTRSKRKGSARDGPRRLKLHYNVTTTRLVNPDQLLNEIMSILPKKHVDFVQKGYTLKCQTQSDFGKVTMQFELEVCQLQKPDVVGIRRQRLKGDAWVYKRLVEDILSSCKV

[7] = target: Serine/threonine-protein kinase N1 (Homo sapiens) (UniProt Q16512); test: Residual activity of PRK1 at 1 uM by microplate scintillation counting
[8] = target: Proto-oncogene tyrosine-protein kinase receptor Ret (Homo sapiens) (UniProt P07949); test: Residual activity of RET at 1 uM by microplate scintillation counting
Sequence of Proto-oncogene tyrosine-protein kinase receptor Ret (Homo sapiens) (P07949 whole entry): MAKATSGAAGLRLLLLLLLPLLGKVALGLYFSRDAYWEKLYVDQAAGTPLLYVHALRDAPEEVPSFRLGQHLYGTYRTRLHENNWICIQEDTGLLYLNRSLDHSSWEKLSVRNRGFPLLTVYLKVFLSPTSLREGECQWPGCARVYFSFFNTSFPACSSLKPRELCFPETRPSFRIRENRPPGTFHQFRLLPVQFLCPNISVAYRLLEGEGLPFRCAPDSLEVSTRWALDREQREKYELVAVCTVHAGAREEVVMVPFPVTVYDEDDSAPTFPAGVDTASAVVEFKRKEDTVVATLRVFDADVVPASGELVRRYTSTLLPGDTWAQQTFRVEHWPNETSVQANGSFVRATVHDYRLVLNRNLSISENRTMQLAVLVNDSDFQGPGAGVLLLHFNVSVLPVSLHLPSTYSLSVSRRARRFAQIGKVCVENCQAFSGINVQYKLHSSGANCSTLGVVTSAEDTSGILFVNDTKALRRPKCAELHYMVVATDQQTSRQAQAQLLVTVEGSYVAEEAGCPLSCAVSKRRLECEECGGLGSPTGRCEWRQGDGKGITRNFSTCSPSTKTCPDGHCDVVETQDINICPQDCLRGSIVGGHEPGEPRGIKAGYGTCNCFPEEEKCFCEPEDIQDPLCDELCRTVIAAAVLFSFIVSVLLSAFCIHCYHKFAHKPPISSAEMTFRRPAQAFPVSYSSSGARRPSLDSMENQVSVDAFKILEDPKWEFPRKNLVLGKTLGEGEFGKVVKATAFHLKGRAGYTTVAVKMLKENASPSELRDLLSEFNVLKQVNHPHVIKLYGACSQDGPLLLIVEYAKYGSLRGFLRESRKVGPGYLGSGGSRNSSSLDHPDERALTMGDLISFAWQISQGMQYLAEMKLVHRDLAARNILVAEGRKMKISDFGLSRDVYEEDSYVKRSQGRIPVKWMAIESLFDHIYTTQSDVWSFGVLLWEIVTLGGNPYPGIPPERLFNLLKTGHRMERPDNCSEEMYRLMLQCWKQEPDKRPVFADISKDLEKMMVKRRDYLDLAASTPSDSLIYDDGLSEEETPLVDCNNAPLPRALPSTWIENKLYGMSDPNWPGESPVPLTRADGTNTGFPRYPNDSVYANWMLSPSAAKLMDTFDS

[9] = target: Insulin-like growth factor 1 receptor (Homo sapiens) (UniProt P08069); test: Residual activity of IGF1R at 10 uM by microplate scintillation counting
[10] = target: T1, Ephrin type-A receptor 3 (Homo sapiens) (UniProt P29320); test: Residual activity of EPHA3 at 0.1 uM by microplate scintillation counting
T1 sequence (whole entry): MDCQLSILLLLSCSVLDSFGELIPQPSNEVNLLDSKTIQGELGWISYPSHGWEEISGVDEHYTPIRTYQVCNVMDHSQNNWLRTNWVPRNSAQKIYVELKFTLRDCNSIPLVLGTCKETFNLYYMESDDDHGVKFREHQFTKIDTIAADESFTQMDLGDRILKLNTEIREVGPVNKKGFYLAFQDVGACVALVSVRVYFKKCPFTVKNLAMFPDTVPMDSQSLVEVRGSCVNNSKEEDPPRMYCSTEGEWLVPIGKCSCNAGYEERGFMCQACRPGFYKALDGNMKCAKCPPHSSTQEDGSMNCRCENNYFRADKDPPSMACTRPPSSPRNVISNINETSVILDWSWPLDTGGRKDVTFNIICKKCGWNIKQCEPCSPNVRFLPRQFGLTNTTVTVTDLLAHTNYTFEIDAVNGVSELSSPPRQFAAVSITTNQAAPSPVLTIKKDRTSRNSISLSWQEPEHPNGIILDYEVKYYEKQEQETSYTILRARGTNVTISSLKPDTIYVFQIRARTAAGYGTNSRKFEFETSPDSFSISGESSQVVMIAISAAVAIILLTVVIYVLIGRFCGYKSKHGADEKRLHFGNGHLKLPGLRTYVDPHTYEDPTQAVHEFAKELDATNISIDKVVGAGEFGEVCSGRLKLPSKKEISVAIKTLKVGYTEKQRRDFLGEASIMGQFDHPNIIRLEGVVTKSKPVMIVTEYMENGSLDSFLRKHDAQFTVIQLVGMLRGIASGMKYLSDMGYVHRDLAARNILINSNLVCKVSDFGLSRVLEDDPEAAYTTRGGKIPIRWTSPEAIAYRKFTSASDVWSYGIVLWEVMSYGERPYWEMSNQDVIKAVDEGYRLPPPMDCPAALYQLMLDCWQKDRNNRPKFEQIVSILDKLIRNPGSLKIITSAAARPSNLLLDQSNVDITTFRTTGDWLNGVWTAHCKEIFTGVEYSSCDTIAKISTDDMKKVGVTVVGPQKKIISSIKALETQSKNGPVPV

[11] = target: Serine/threonine-protein kinase PAK 3 (Homo sapiens) (UniProt O75914); test: Residual activity of PAK3 at 10 uM by microplate scintillation counting
Sequence of Serine/threonine-protein kinase PAK 3 (Homo sapiens) (O75914 whole entry, looked up): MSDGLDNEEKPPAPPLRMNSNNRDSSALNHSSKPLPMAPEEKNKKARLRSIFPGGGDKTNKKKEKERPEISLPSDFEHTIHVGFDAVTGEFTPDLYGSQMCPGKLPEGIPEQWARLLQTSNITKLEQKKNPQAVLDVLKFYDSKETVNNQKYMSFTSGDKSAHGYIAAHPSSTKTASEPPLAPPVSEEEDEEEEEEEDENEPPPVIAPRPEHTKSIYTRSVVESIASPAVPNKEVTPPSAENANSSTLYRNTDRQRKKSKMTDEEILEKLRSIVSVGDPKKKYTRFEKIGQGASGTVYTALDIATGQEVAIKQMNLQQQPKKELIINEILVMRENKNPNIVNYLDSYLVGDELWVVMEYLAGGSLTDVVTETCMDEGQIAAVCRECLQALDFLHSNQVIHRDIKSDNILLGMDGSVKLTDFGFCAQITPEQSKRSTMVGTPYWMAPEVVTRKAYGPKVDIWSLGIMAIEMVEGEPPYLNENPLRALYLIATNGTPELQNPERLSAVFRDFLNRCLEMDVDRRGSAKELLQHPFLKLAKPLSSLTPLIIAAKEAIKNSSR

[12] = target: CDK3/cyclin E (Homo sapiens) (UniProt P24864+O96020+Q00526); test: Residual activity of CDK3/Cyclin E at 1 uM by microplate scintillation counting; type: protein-complex assay
[13] = target: T2, Serine/threonine-protein kinase NLK (Homo sapiens) (UniProt Q9UBE8); test: Residual activity of NLK at 0.1 uM by microplate scintillation counting
T2 sequence (whole entry): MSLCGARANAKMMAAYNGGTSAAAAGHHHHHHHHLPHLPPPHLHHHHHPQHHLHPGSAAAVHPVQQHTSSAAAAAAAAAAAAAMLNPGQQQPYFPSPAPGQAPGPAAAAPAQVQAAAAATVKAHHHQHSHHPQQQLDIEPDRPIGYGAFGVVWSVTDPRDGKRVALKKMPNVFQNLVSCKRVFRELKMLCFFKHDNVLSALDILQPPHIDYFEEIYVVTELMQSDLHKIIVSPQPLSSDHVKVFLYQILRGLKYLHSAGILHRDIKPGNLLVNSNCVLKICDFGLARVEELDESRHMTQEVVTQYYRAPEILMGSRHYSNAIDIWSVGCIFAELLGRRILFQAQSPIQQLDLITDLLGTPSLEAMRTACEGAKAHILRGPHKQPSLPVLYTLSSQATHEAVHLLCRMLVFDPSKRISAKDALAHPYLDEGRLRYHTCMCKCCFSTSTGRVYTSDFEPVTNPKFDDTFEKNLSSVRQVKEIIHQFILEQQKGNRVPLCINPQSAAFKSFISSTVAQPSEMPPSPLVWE

[14] = target: Serine/threonine-protein kinase N1 (Homo sapiens) (UniProt Q16512); test: Residual activity of PRK1 at 10 uM by microplate scintillation counting
[15] = target: Rho-associated protein kinase 1 (Homo sapiens) (UniProt Q13464); test: Residual activity of ROCK1 at 0.1 uM by microplate scintillation counting
Sequence of Rho-associated protein kinase 1 (Homo sapiens) (Q13464 2-1354 limits assumed): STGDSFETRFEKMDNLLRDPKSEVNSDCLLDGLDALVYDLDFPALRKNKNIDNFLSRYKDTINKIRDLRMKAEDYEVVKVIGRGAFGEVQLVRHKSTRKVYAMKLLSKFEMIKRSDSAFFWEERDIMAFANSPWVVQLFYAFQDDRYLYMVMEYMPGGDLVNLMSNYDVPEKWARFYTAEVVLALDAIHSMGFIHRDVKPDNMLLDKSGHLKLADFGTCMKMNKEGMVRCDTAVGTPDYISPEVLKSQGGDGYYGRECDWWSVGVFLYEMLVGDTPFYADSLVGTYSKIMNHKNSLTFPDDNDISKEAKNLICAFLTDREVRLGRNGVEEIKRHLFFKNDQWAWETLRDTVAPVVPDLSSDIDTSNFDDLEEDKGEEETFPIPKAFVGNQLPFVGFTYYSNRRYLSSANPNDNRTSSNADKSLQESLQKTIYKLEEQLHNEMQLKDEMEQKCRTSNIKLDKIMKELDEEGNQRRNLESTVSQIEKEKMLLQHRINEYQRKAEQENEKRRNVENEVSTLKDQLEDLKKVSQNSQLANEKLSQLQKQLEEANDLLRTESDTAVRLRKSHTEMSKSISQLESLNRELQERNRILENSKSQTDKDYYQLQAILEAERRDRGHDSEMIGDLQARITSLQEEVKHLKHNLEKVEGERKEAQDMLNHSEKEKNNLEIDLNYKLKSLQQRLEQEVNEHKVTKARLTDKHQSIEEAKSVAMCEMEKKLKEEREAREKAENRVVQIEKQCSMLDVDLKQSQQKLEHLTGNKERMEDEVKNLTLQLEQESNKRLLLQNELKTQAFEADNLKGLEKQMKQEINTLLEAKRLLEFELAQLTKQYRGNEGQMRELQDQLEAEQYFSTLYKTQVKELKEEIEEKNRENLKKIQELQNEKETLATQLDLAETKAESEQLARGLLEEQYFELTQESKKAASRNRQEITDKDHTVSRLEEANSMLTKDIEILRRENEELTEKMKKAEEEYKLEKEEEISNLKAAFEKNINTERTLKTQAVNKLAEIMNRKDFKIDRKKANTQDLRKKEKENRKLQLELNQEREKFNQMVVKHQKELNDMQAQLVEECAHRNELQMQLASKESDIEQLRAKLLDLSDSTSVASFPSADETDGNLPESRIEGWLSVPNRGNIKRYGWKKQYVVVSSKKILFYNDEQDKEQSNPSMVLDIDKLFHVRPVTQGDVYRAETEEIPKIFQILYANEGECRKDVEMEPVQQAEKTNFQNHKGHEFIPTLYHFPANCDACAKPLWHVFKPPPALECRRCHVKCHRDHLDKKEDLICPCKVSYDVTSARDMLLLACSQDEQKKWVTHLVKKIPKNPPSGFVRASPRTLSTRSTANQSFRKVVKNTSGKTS

SMILES: COc1cc2c(Oc3ccc(-c4nc5ccccc5s4)cc3)ncnc2cc1OCCCN1CCN(C)CC1
- residual activity [1]: 90%
- residual activity [2]: 87%
- residual activity [3]: 106%
- residual activity [4]: 103%
- residual activity [5]: 83%
- residual activity [6]: 106%
- residual activity [7]: 98%
- residual activity [8]: 68%
- residual activity [9]: 100%
- residual activity [10]: 92%
- residual activity [11]: 43%
- residual activity [12]: 85%
- residual activity [13]: 94%
- residual activity [14]: 83%
- residual activity [15]: 98%

SMILES: COc1cc2c(Oc3ccc(-c4nc5ccccc5s4)cc3F)ncnc2cc1OCCCN1CCN(C)CC1
- residual activity [1]: 108%
- residual activity [2]: 90%
- residual activity [3]: 103%
- residual activity [4]: 97%
- residual activity [5]: 81%
- residual activity [6]: 68%
- residual activity [7]: 99%
- residual activity [8]: 58%
- residual activity [9]: 46%
- residual activity [10]: 106%
- residual activity [11]: 39%
- residual activity [12]: 79%
- residual activity [13]: 91%
- residual activity [14]: 91%
- residual activity [15]: 101%

SMILES: COc1cc2c(Oc3ccc(-c4nc5ccccc5s4)cc3)ncnc2cc1OCCCN1CCCC1
- residual activity [1]: 94%
- residual activity [2]: 89%
- residual activity [3]: 96%
- residual activity [4]: 112%
- residual activity [5]: 106%
- residual activity [6]: 78%
- residual activity [7]: 97%
- residual activity [8]: 81%
- residual activity [9]: 98%
- residual activity [10]: 104%
- residual activity [11]: 56%
- residual activity [12]: 89%
- residual activity [13]: 90%
- residual activity [14]: 68%
- residual activity [15]: 96%
